In patent US8507411B2, “Neoglycorandomization and digitoxin analogs” (priority 2004, dated 2013):
Like-named read-outs stand apart in the source and are kept apart here.

What was measured:
[1] = test system: HCT-116; test: High-throughput calcein AM cytotoxicity assay, HCT-116; type: cell-based, human; details: HCT-116 cells
Text: (§1) Standard errors are depicted with error bars.

[2] = test system: NCI-H460; test: High-throughput calcein AM cytotoxicity assay, NCI-H460; type: cell-based, human; details: NCI-H460 cells
Text: as §1

[3] = test system: Du145; test: High-throughput calcein AM cytotoxicity assay, Du145; type: cell-based, human; details: Du145 cells
Text: as §1

[4] = test system: A549; test: High-throughput calcein AM cytotoxicity assay, A549; type: cell-based, human; details: A549 cells
Text: as §1

[5] = test system: NmuMG; test: cells; type: cell-based, mouse
Text: (§2) In the assay, live cells were distinguished by the presence of a ubiquitous intracellular enzymatic activity which converts the non-fluorescent cell-permeable molecule calcein AM to the intensely fluorescent molecule calcein, which is retained within live cells. The IC50 value for each library member represents at least six replicates of dose-response experiments conducted over five concentrations using two-fold dilutions. […] Standard errors are depicted with error bars. Numerical values and corresponding error values can be found in Table 4. Du145: […]; MCF7: human breast carcinoma; HCT-116: human colon carcinoma, Hep3B: human liver carcinoma; SF-268: human CNS glioblastoma; SK-OV-3: human ovary adenocarcinoma; NCI-H460: human lung carcinoma; A549: human lung adenocarcinoma; NCI/ADR-RES: human breast carcinoma; NmuMG: mouse mammary normal epithelial.
(§3) Cell Culture: All cell lines except NmuMG were maintained in RPMI 1640 medium from InVitrogen (Cat No. 11875-085) supplemented with 10% w/v fetal bovine serum (FBS) from ICN (Cat No. 2916154) and penicillin-streptomycin (PS) (100 U/mL and 100 μg/mL) from InVitrogen (Cat No. 15140-122). NmuMG cells were maintained in DMEM medium from InVitrogen (Cat No. 11965-084) supplemented with 10% w/v fetal bovine serum (FBS) from ICN (Cat No. 2916154), 10 μg/ml insulin (InVitrogen Cat No 12585-014), and penicillin-streptomycin (PS) (100 U/mL and 100 μg/mL) from InVitrogen (Cat No. 15140-122). Cells were harvested by trypsinization using 0.25% w/v trypsin and 0.1% w/v EDTA from InVitrogen (Cat No. 15-050-057) and then counted in a hemocytometer in duplicate with better than 10% agreement in field counts. Cells were plated at a cell density of 10,000-15,000 cells/well of each Corning Costar 96-well black tissue culture treated microtiter plate (Fisher Cat No. 07-200-627). Cells were grown for 1 h at 37° C., with 5% CO2 in a humidified incubator to allow cell attachment to occur before compound addition.
(§4) Library Member Handling and Preparation for Cytotoxicity Assays: Library members were stored at −20° C. under dessicating conditions before the assay. Library member stocks (100×) were prepared in Corning Costar polypropylene 96-well V-bottom polypropylene microtiter plates (Fisher Cat No. 07-200-695). Five serial 1:2 dilutions were made with anhydrous DMSO at 100× the final concentration used in the assay.
(§5) Library Member Addition: The library member-containing plates were diluted 1:10 with complete cell culture media. The 10× stocks (10 μL) were added to the attached cells using a Biomek FX liquid handler (Beckman-Coulter). Library member stocks (10 μL) were added to 90 μL of cells in each plate to insure full mixing of stocks with culture media using a Beckman FX liquid handler with 96-well head.
(§6) Determination of Cytotoxicity: Cells were incubated with the library members for 72 h before fluorescence reading. Test plates were removed from the incubator and washed 1× in sterile PBS to remove serum containing calcium esterases. Calcein AM reagent (30 μL, […]) was added and the cells were incubated for 30 min at 37° C. Plates were read for emission using a fluorescein filter (excitation 485 nm, emission 535 nm).
(§7) IC50 Calculation: For each library member, at least six dose response experiments were conducted. […] To calculate IC50, percent inhibitions were plotted as a function of log [concentration] and then fit to a four-parameter logistic model that allowed for a variable Hill slope using XLfit 4.1.
(§8) Cytotoxicity Assays. All cell lines except NmuMG were maintained in RPMI 1640 medium supplemented with 10% w/v fetal bovine serum (FBS) and penicillin-streptomycin (PS) (100 U/mL and 100 μg/mL).

[6] = test system: Hep3B; test: High-throughput calcein AM cytotoxicity assay, Hep3B; type: cell-based, human; details: Hep 3B cells
Text: as §1

[7] = test system: NCI/ADR-RES; test: cells; type: cell-based, human; details: NCI/ADR-RES cells
Text: as §2, §3, §4, §5, §6, §7, §8

[8] = test system: SK-OV-3; test: cells; type: cell-based, human; details: SK-OV-3 cells
Text: as §2, §3, §4, §5, §6, §7, §8

[9] = test system: SF-268; test: cells; type: cell-based, human; details: SF-268 cells
Text: as §2, §3, §4, §5, §6, §7, §8

[10] = test system: MCF7; test: High-throughput calcein AM cytotoxicity assay, MCF7; type: cell-based, human; details: MCF7 cells
Text: as §1

[11] = NmuMG mouse mammary normal epithelial control line, read-out: IC50, NmuMG
[12] = NmuMG cells (mouse mammary normal epithelial control line), read-out: IC50

Compound	IC50 ([1]; read-out: IC50, HCT-116) [nM]	IC50 ([2]; read-out: IC50, NCI-H460) [nM]	IC50 ([3]; read-out: IC50, Du145) [nM]	IC50 ([4]; read-out: IC50, A549) [nM]	IC50 [5, 11] [nM]	IC50 ([6]; read-out: IC50, Hep 3B) [nM]	IC50 ([7]; read-out: IC50, NCI/ADR-RES) [nM]	IC50 ([8]; read-out: IC50, SK-OV-3) [nM]	IC50 ([9]; read-out: IC50, SF-268) [nM]	IC50 ([10]; read-out: IC50, MCF7) [nM]	IC50 ([1]; read-out: IC50) [nM]	IC50 ([2]; read-out: IC50) [nM]	IC50 ([3]; read-out: IC50) [nM]	IC50 ([4]; read-out: IC50) [nM]	IC50 [5, 12] [nM]	IC50 ([6]; read-out: IC50) [nM]	IC50 ([7]; read-out: IC50) [nM]	IC50 ([8]; read-out: IC50) [nM]	IC50 ([9]; read-out: IC50) [nM]	IC50 ([10]; read-out: IC50) [nM]
L-rhamnoside [16β]	900	330	170	700	> 25000	540	350	4000	3300	1800										
L-rhamnoside [16α]	> 25000	> 25000	> 25000	> 25000	> 25000	> 25000	> 25000	> 25000	> 25000	> 25000										
CON(C1CCC2(C)C(CCC3C2CCC2(C)C(C4=CC(=O)OC4)CCC32O)C1)C1OC(CO)C(O)C(O)C1O [22α, D-galactoside]	> 25000	> 25000	> 25000	> 25000	> 25000	> 25000	> 25000	> 25000	> 25000	> 25000										
CON([C@H]1CC[C@@]2(C)[C@H](CC[C@@H]3[C@@H]2CC[C@]2(C)[C@@H](C4=CC(=O)OC4)CC[C@]32O)C1)[C@H]1O[C@@H](C)[C@@H](O)[C@@H](O)[C@@H]1O [7β, L-fucoside]	1200	600	700	300	> 25000	350	250	500	900	1300										
CON(C1CCC2(C)C(CCC3C2CCC2(C)C(C4=CC(=O)OC4)CCC32O)C1)C1OC(CO)C(O)C(O)C1O [39α, L-taloside]											> 25000	> 25000	> 25000	> 25000	> 25000	> 25000	> 25000	> 25000	> 25000	> 25000
CON(C1CCC2(C)C(CCC3C2CCC2(C)C(C4=CC(=O)OC4)CCC32O)C1)C1OC(CO)C(O)C(O)C1O [42β, L-glucoside]	900	1300	1300	800	1200	900	550	1000	1900	600										
CON(C1CCC2(C)C(CCC3C2CCC2(C)C(C4=CC(=O)OC4)CCC32O)C1)C1OC(CO)C(O)C(O)C1O [26α, L-mannoside]	> 25000	> 25000	> 25000	> 25000		> 25000	> 25000	> 25000	> 25000	> 25000					> 25000					
CON([C@H]1CC[C@@]2(C)[C@H](CC[C@@H]3[C@@H]2CC[C@]2(C)[C@@H](C4=CC(=O)OC4)CC[C@]32O)C1)[C@@H]1OC[C@@H](O)[C@H](O)[C@H]1O [24β, D-xyloside]	1800	1800	820	1100	900	1200	540	1800	2100	1800										
CON([C@H]1CC[C@@]2(C)[C@H](CC[C@@H]3[C@@H]2CC[C@]2(C)[C@@H](C4=CC(=O)OC4)CC[C@]32O)C1)[C@@H]1O[C@H](CO)[C@@H](O)[C@@H](O)[C@H]1O [18β, D-alloside]	6000	3200	2200	2000	3100	3300	800	6400	3500	6800										
D-arabinoside [33α]											> 25000	> 25000	> 25000	> 25000	> 25000	> 25000	> 25000	> 25000	> 25000	> 25000
CON(C1CCC2(C)C(CCC3C2CCC2(C)C(C4=CC(=O)OC4)CCC32O)C1)C1OC(CO)C(O)C(O)C1O [39β, L-taloside]	2300	1100	760	890	500	960	1000	1500	1400	1800										
CON(C1CCC2(C)C(CCC3C2CCC2(C)C(C4=CC(=O)OC4)CCC32O)C1)C1OC(CF)C(O)C(O)C1O [13α, 6-deoxy-6-fluoro-D-glucoside]	> 25000	> 25000	> 25000	> 25000	> 25000	> 25000	> 25000	> 25000	> 25000	> 25000										
